Target: T1, Disintegrin and metalloproteinase domain-containing protein 17 (Homo sapiens, UniProt P78536)
Assay: Inhibition of recombinant human TACE catalytic domain using Mca-Pro-Leu-Ala-Gln-Ala-Val-Dpa-Arg-Ser-Ser-Ser-Arg-NH2 as substrate after 2 hrs by fluorescence assay
Details: not given

T1 sequence (P78536 whole entry, the tested form may be a part): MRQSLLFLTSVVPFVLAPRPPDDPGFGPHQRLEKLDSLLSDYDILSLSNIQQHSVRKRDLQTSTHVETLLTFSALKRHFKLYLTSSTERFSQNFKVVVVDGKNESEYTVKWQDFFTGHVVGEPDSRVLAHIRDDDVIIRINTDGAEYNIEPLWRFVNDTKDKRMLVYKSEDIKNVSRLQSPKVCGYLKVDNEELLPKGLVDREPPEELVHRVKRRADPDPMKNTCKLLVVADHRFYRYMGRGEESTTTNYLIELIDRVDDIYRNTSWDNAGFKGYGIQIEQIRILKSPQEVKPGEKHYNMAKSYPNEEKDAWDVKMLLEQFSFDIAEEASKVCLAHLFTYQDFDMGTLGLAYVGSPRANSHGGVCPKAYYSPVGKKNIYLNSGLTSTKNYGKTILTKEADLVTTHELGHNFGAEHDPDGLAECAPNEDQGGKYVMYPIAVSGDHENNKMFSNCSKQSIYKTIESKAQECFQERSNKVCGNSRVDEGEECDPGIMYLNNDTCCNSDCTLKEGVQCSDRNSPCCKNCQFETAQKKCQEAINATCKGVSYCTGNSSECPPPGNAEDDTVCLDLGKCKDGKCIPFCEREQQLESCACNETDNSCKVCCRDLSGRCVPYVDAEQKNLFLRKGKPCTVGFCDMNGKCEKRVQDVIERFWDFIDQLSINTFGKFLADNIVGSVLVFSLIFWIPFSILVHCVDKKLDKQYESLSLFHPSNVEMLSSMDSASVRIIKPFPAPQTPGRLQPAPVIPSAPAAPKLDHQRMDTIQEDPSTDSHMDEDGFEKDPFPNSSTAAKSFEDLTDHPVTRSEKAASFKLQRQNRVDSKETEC

IC50 [nM] | Structure (SMILES)
35 | Cc1cc(COc2ccc(S(=O)(=O)N3CCC(CC(C)C)(C(=O)NO)C3)cc2)c2ccccc2n1 (stereo unspecified)
71 | Cc1cc(COc2ccc(S(=O)(=O)N3CCCOC(C(=O)NO)C3)cc2)c2ccccc2n1 (stereo unspecified)
3600 | CC(=O)N1C[C@H](S(=O)(=O)c2ccc(OCc3cc(C)nc4c3CCCC4)cc2)C[C@H]1C(=O)NO
> 10000 | CC#CCOc1ccc(S(=O)(=O)[C@H]2C[C@H](C(=O)NO)N(C(C)=O)C2)cc1
42 | Cc1cc(COc2ccc(S(=O)(=O)N3CCC(Cc4ccccc4)(C(=O)NO)C3)cc2)c2ccccc2n1 (stereo unspecified)
200 | CC(=O)N1CCCN(S(=O)(=O)c2ccc(OCc3cc(C)nc4ccccc34)cc2)CC1C(=O)NO (stereo unspecified)
1500 | CC#CCOc1ccc(S(=O)(=O)N2CCN(C(C)=O)C(C(=O)NO)C2)cc1 (stereo unspecified)
> 10000 | CC#CCOc1ccc(S(=O)(=O)[C@@H]2C[C@H](C(=O)NO)N(C(C)=O)C2)cc1
16 | CCC1(C(=O)NO)CCN(S(=O)(=O)c2ccc(OCc3cc(C)nc4ccccc34)cc2)C1 (stereo unspecified)
> 10000 | CC#CCOc1ccc(C(=O)N2CCC(C(=O)NO)C2)cc1 (stereo unspecified)
180 | Cc1cc(COc2ccc(S(=O)(=O)N3CCOC(C(=O)NO)C3)cc2)c2ccccc2n1 (stereo unspecified)
10000 | CC#CCOc1ccc(S(=O)(=O)[C@@H]2C[C@@H](C(=O)NO)N(C(C)=O)C2)cc1
30 | CC(=O)N1CCN(S(=O)(=O)c2ccc(OCc3cc(C)nc4c3CCCC4)cc2)CC1(C)C(=O)NO (stereo unspecified)
760 | CC(=O)N1CCN(C(=O)c2ccc(OCc3cc(C)nc4c3CCCC4)cc2)CC1C(=O)NO (stereo unspecified)
> 10000 | CC#CCOc1ccc(S(=O)(=O)[C@H]2C[C@@H](C(=O)NO)N(C(C)=O)C2)cc1
> 10000 | CC(=O)N1C[C@@H](S(=O)(=O)c2ccc(OCc3cc(C)nc4c3CCCC4)cc2)C[C@@H]1C(=O)NO
40 | Cc1cc(COc2ccc(S(=O)(=O)N3CCCC(C)(C(=O)NO)C3)cc2)c2c(n1)CCCC2 (stereo unspecified)
> 10000 | CC#CCOc1ccc(S(=O)(=O)N2CCC(C(=O)NO)C2)cc1 (stereo unspecified)
110 | Cc1cc(COc2ccc(S(=O)(=O)N3CCNC(C(=O)NO)C3)cc2)c2c(n1)CCCC2 (stereo unspecified)
6500 | Cc1cc(COc2ccc(C(=O)N3CCC(C(=O)NO)C3)cc2)c2c(n1)CCCC2 (stereo unspecified)
> 10000 | CC(=O)N1C[C@H](S(=O)(=O)c2ccc(OCc3cc(C)nc4c3CCCC4)cc2)C[C@@H]1C(=O)NO

Target: T1, Disintegrin and metalloproteinase domain-containing protein 17
Assay: Inhibition of recombinant TACE catalytic domain (unknown origin) using Abz-LAQAVRSSSR-Dpa as substrate preincubated for 10 mins followed by substrate addition measured after 10 mins by FRET assay
Details: read-out: IC50

IC50 [nM] | Structure (SMILES)
0.5 | Cc1cc(COc2ccc(S(=O)(=O)N[C@@H]3CCN(C(=O)OC(C)(C)C)C[C@@H]3C(=O)NO)cc2)c2ccccc2n1
0.6 | Cc1cc(COc2ccc(S(=O)(=O)N[C@@H]3[C@H]4CC[C@H](C4)[C@@H]3C(=O)NO)cc2)c2ccccc2n1
0.7 | Cc1cc(COc2ccc(S(=O)(=O)N[C@@H]3CN(C(=O)OC(C)(C)C)CC[C@H]3C(=O)NO)cc2)c2ccccc2n1

Target: Disintegrin and metalloproteinase domain-containing protein 17 (Mus musculus, UniProt Q9Z0F8)
Assay: Inhibition of TACE in mouse RAW264.7 cells assessed as inhibition of LPS-stimulated TNFalpha production pretreated for 1 hr followed by LPS stimulation for 4 hrs by ELISA
Type: cell-based
Details: read-out: IC50

Chain of Disintegrin and metalloproteinase domain-containing protein 17 (Mus musculus, UniProt Q9Z0F8) (Q9Z0F8 whole entry, the tested form may be a part): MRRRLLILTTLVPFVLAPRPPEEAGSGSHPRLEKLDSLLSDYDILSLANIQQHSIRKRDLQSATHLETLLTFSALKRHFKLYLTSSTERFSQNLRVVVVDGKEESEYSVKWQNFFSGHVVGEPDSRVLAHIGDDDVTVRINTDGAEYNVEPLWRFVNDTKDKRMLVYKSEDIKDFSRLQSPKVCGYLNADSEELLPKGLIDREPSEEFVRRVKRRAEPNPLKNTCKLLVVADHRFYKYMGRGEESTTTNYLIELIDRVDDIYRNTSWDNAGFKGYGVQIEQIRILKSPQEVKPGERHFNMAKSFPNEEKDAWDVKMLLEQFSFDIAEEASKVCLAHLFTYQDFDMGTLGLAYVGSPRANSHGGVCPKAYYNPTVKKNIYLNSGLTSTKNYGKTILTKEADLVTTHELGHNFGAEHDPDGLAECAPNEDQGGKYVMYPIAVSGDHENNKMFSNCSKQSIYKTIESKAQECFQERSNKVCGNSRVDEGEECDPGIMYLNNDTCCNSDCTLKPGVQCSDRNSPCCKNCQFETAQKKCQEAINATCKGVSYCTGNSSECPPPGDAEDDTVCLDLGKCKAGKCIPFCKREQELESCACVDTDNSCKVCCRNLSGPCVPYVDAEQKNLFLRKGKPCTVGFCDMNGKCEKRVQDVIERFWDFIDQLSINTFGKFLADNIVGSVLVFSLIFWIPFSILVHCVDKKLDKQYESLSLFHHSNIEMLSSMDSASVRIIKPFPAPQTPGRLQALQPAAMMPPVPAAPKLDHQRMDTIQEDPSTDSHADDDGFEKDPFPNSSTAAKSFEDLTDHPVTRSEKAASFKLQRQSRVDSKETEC

IC50 [nM] | Structure (SMILES)
7 | Cc1cc(COc2ccc(S(=O)(=O)N[C@@H]3CCN(C=O)C[C@@H]3C(=O)NO)cc2)c2ccccc2n1
82 | Cc1cc(COc2ccc(S(=O)(=O)N[C@@H]3CCC[C@]3(O)C(=O)NO)cc2)c2ccccc2n1
1670 | Cc1cc(COc2ccc(S(=O)(=O)N[C@@H]3CCOC[C@]3(C)C(=O)NO)cc2)c2ccccc2n1
21 | Cc1cc(COc2ccc(S(=O)(=O)N[C@@H]3CN(C=O)CCC3C(=O)NO)cc2)c2ccccc2n1 (stereo partly specified)
460 | Cc1cc(COc2ccc(S(=O)(=O)N[C@@H]3CCN(C(=O)OC(C)(C)C)C[C@@H]3C(=O)NO)cc2)c2ccccc2n1
18 | Cc1cc(COc2ccc(S(=O)(=O)N[C@@H]3[C@H]4CC[C@H](C4)[C@@H]3C(=O)NO)cc2)c2ccccc2n1
58 | Cc1cc(COc2ccc(S(=O)(=O)N[C@@H]3CN(C(=O)OC(C)(C)C)CC[C@H]3C(=O)NO)cc2)c2ccccc2n1
1000 | Cc1cc(COc2ccc(S(=O)(=O)N(C)[C@@H]3CC=CC[C@@H]3C(=O)NO)cc2)c2ccccc2n1 (relative stereo)
20 | Cc1cc(COc2ccc(S(=O)(=O)N[C@@H]3CN(C=O)C[C@@H]3C(=O)NO)cc2)c2ccccc2n1 (relative stereo)
1000 | Cc1cc(COc2ccc(S(=O)(=O)N(C)[C@@H]3CCOC[C@@H]3C(=O)NO)cc2)c2ccccc2n1 (relative stereo)
90 | C#CCN1C[C@H](C(=O)NO)[C@H](NS(=O)(=O)c2ccc(OCc3cc(C)nc4ccccc34)cc2)C1 (relative stereo)
17 | Cc1cc(COc2ccc(S(=O)(=O)N[C@@H]3CCOC[C@@H]3C(=O)NO)cc2)c2ccccc2n1 (relative stereo)

Reference: ChEMBL document CHEMBL4007472, “Identification of novel TACE inhibitors compatible with topical application” (Bioorg Med Chem Lett, 2017)
